Experimental data taken from patent US6358515B2, “Hydroquinone derivatives” (Senju Pharmaceutical Co., Ltd., priority 1997, dated 2002).
One block for each compound: values may come before it.

How the values were obtained:
[1] = tested on: Intraocular Pressure of Rabbit; experiment: Intraocular pressure lowering effect in rabbits (eye drop instillation, tonometer); type: in vivo, Male Dutch rabbits; settings: for Intraocular pressure, 1 hr: 1 hr after instillation of 50 μl of 0.5% eye drops into the right eye; for Intraocular pressure, 1 hr / Intraocular pressure, 2 hr / Intraocular pressure, 3 hr / Intraocular pressure, 4 hr / Intraocular pressure, 0 hr: mean ± SD (n = 4-5); for Intraocular pressure, 2 hr: 2 hr after instillation of 50 μl of 0.5% eye drops into the right eye; for Intraocular pressure, 3 hr: 3 hr after instillation of 50 μl of 0.5% eye drops into the right eye; for Intraocular pressure, 4 hr: 4 hr after instillation of 50 μl of 0.5% eye drops into the right eye; for Intraocular pressure, 0 hr: initial value (0 hr) before instillation
Experimental: The present compound was tested for its intraocular pressure lowering effect.
Male Dutch rabbits of about 2.5 kg body weight were used in the test.
Intraocular pressure was measured by means of a contact type tonometer (ALCON Applanation Pneumatonograph) after instillation of oxybuprocaine hydrochloride [Anelocal (registered trademark) eye drops: SENJU Pharmaceutical Co., Ltd.] into both eyes of the rabbits for local anesthesia.
Eye drops were prepared each containing one of the test compounds at a concentration of 0.5% and 50 μl of it was instilled into the right eye. Intraocular pressure of both eyes was measured over time (0, 1, 2, 3, 4 hours). For analysis, Student t-test was conducted for the intraocular pressure measured at each time against the initial value.

[2] = tested on: Blood Pressure of SHR Rat; experiment: Effect on blood pressure of SHR rat (oral administration); type: in vivo, male SHR/Izm rats; settings: mean ± SD (n = 4-5); for Blood pressure, 1 hr: 1 hr after 30 mg/kg orally; for Blood pressure, 2 hr: 2 hr after 30 mg/kg orally; for Blood pressure, 3 hr: 3 hr after 30 mg/kg orally; for Blood pressure, 4 hr: 4 hr after 30 mg/kg orally; for Blood pressure, 0 hr: initial value (0 hr) before administration
Experimental: The present compound was tested for its blood pressure lowering effect.
About 25-week old male SHR/Izm rats were used in the test.
Initial value of the blood pressure of rat tail vein was measured with a non-invasive automatic manometer for small animals, UR-5000 (UEDA Seisakusho), and then one of the test compounds 30 mg/kg was orally administered. Blood pressure was measured in the same manner 1, 2, 3 and 4 hours after administration. For analysis, Student t-test was conducted for the blood pressure measured at each time against the initial value.

[3] = Radical scavenging ability on the stable radical DPPH; settings: for IC50: DPPH radical; for Radical scavenging activity (in words) / Radical scavenging rate (%): DPPH; for Radical scavenging activity (in words): 1-1000 μM; for Radical scavenging rate (%): 20 minutes, absorbance at 517 nm
Experimental: The present compound was tested for its scavenging ability on a stable radical of 1,1-diphenyl-2-picrylhydrazide (DPPH).
The test was carried out according to the method described by Blois, M. S., Nature, 181: 1199 ([…]).
Each of the test compound was dissolved in purified water to prepare 10^−5-10^−2 M test solutions. To 300 μl each of the test solutions was added 2.7 ml of a […] solution of the stable radical, DPPH, in ethanol and stirred. The mixture was allowed to stand for 20 minutes, and absorbance at 517 nm was measured. Radical scavenging ability was determined for each of the test solutions according to the following equation.
Radical scavenging rate (%)=(Absorbance of control−Absorbance of test solution[…])×100

Structure (SMILES): COc1ccc(N2CCN(CC(O)COc3ccc(O)cc3)CC2)c(OC)c1.Cl.Cl (stereo not shown)
melting point: 213 to 215 °C (dec.)

Structure (SMILES): COc1ccc(C)cc1N1CCN(CC(O)COc2ccc(O)cc2)CC1.Cl.Cl (stereo not shown)
melting point: 222 to 224 °C

Structure (SMILES): COc1ccc(OC)c(N2CCN(CC(O)COc3ccc(O)cc3C)CC2)c1.Cl.Cl (stereo not shown)
melting point: 168 to 170 °C (dec.)

Structure (SMILES): COc1ccccc1N1CCN(CC(O)COc2c(C)cc(O)c3ccccc23)CC1.Cl.Cl (stereo not shown) [Example 4, 1-(2-Methyl-4-hydroxynaphthoxy)-3-[4-(2-methoxyphenyl)-1-piperazinyl]propan-2-ol dihydrochloride]
Intraocular pressure lowering effect (in words) ([1]; 0.5% eye drops): a potent intraocular pressure lowering effect was observed since one hour after instillation
Time of peak intraocular pressure lowering effect after instillation ([1]; 0.5% eye drops): 2 h
Intraocular pressure, 1 hr [1]: 17.3 ± 2.06^*3 mmHg
Intraocular pressure, 2 hr [1]: 15.0 ± 3.74^*2 mmHg
Intraocular pressure, 3 hr [1]: 15.8 ± 2.06^*3 mmHg
Intraocular pressure, 4 hr [1]: 20.8 ± 2.22^*2 mmHg
Intraocular pressure, 0 hr [1]: 26.5 ± 1.75 mmHg
Blood pressure, 1 hr [2]: 201.8 ± 7.7^*3 mmHg
Blood pressure, 2 hr [2]: 207.8 ± 13.8^*2 mmHg
Blood pressure, 3 hr [2]: 212.2 ± 3.8^*3 mmHg
Blood pressure, 4 hr [2]: 212.2 ± 20.8^*1 mmHg
Blood pressure, 0 hr [2]: 240.0 ± 8.5 mmHg
IC50 [3]: 42 µM
Radical scavenging activity (in words) [3]: concentration-dependently exhibited a radical scavenging activity
Radical scavenging rate (%) ([3]; final concentration 1 μM): 6.7%
Radical scavenging rate (%) ([3]; final concentration 10 μM): 16.6%
Radical scavenging rate (%) ([3]; final concentration 30 μM): 37.7%
Radical scavenging rate (%) ([3]; final concentration 100 μM): 75.4%
Radical scavenging rate (%) ([3]; final concentration 1000 μM): 91.7%

Structure (SMILES): COc1ccccc1N1CCN(CC(O)COc2ccc(O)c(C(C)(C)C)c2)CC1.Cl (stereo not shown) [Example 20, 1-(3-tert-Butyl-4-hydroxyphenoxy)-3-[4-(2-methoxyphenyl)-1-piperazinyl]propan-2-ol hydrochloride]
Intraocular pressure, 1 hr [1]: 22.2 ± 2.59^*1 mmHg
Intraocular pressure, 2 hr [1]: 25.2 ± 0.84 mmHg
Intraocular pressure, 3 hr [1]: 25.8 ± 2.59 mmHg
Intraocular pressure, 4 hr [1]: 28.0 ± 1.73 mmHg
Intraocular pressure, 0 hr [1]: 28.0 ± 3.81 mmHg
Blood pressure, 1 hr [2]: 204.8 ± 16.9^*2 mmHg
Blood pressure, 2 hr [2]: 215.0 ± 11.0^*2 mmHg
Blood pressure, 3 hr [2]: 217.5 ± 15.2^*1 mmHg
Blood pressure, 4 hr [2]: 216.3 ± 18.0^*1 mmHg
Blood pressure, 0 hr [2]: 250.3 ± 14.3 mmHg
melting point: 170 to 172 °C

Structure (SMILES): COc1ccc(OC)c(N2CCN(CC(O)COc3ccc(O)cc3)CC2)c1.Cl.Cl (stereo not shown) [Example 25, 1-(4-Hydroxyphenoxy)-3-[4-(2,5-dimethoxyphenyl)-1-piperazinyl]propan-2-ol dihydrochloride]
Intraocular pressure, 1 hr [1]: 26.8 ± 1.92^*2 mmHg
Intraocular pressure, 2 hr [1]: 25.4 ± 1.82^*2 mmHg
Intraocular pressure, 3 hr [1]: 28.6 ± 6.11 mmHg
Intraocular pressure, 4 hr [1]: 29.6 ± 2.07 mmHg
Intraocular pressure, 0 hr [1]: 31.6 ± 2.41 mmHg
melting point: 205 to 207 °C

Further lines, with some results ahead:

melting point: 138 to 140 °C
Structure (SMILES): COc1ccccc1N1CCN(C(Oc2cc(C)c(O)c(OC)c2OC)C(C)O)CC1.Cl (stereo not shown)

melting point: 214 to 215 °C (dec.)
Structure (SMILES): COc1ccccc1N1CCN(CC(O)COc2cc(C)c(O)cc2C)CC1.Cl.Cl (stereo not shown)

melting point: 192 to 194 °C (dec.)
Structure (SMILES): COc1ccccc1N1CCN(CC(O)COc2ccc(O)cc2C)CC1.Cl.Cl (stereo not shown)

melting point: 214 to 216 °C (dec.)
Structure (SMILES): COc1ccccc1N1CCN(CC(O)COc2ccc(O)c(C)c2)CC1.Cl.Cl (stereo not shown)

IC50 [3]: 23 µM
Structure (SMILES): COc1ccccc1N1CCN(CC(O)COc2cc(C)c(O)c3ccccc23)CC1 (stereo not shown) [Example 2, 1-(3-Methyl-4-hydroxynaphthoxy)-3-[4-(2-methoxyphenyl)-1-piperazinyl]propan-2-ol]
Intraocular pressure, 1 hr [1]: 21.8 ± 2.05^*1 mmHg
Intraocular pressure, 2 hr [1]: 24.4 ± 1.82 mmHg
Intraocular pressure, 3 hr [1]: 25.8 ± 2.39 mmHg
Intraocular pressure, 4 hr [1]: 26.6 ± 2.88 mmHg
Intraocular pressure, 0 hr [1]: 25.2 ± 1.30 mmHg
Blood pressure, 1 hr [2]: 204.0 ± 17.6 mmHg
Blood pressure, 2 hr [2]: 192.2 ± 6.2^*1 mmHg
Blood pressure, 3 hr [2]: 191.2 ± 14.6^*1 mmHg
Blood pressure, 4 hr [2]: 187.8 ± 11.4^*1 mmHg
Blood pressure, 0 hr [2]: 216.8 ± 18.0 mmHg
Radical scavenging activity (in words) [3]: concentration-dependently exhibited a radical scavenging activity
Radical scavenging rate (%) ([3]; final concentration 1 μM): 7.8%
Radical scavenging rate (%) ([3]; final concentration 10 μM): 24.9%
Radical scavenging rate (%) ([3]; final concentration 30 μM): 61.0%
Radical scavenging rate (%) ([3]; final concentration 100 μM): 99.4%
Radical scavenging rate (%) ([3]; final concentration 1000 μM): 99.8%

melting point: 208 to 210 °C (dec.)
Structure (SMILES): COc1ccccc1N1CCN(CC(O)COc2cc(C)c(O)c(C)c2)CC1.Cl.Cl (stereo not shown) [Example 17, 1-(3,5-Dimethyl-4-hydroxyphenoxy)-3-[4-(2-methoxyphenyl)-1-piperazinyl]propan-2-ol dihydrochloride]
Intraocular pressure, 1 hr [1]: 25.4 ± 2.79^*1 mmHg
Intraocular pressure, 2 hr [1]: 25.4 ± 2.88^*1 mmHg
Intraocular pressure, 3 hr [1]: 27.0 ± 3.08 mmHg
Intraocular pressure, 4 hr [1]: 28.6 ± 4.22 mmHg
Intraocular pressure, 0 hr [1]: 30.0 ± 3.08 mmHg
Blood pressure, 1 hr [2]: 214.8 ± 9.9^*1 mmHg
Blood pressure, 2 hr [2]: 230.8 ± 13.0 mmHg
Blood pressure, 3 hr [2]: 225.0 ± 13.0 mmHg
Blood pressure, 4 hr [2]: 219.5 ± 10.6 mmHg
Blood pressure, 0 hr [2]: 247.3 ± 23.2 mmHg

melting point: 228 to 230 °C (dec.)
Structure (SMILES): COc1ccccc1N1CCN(CC(O)COc2ccc(O)c(C)c2C)CC1.Cl (stereo not shown) [Example 22, 1-(2,3-Dimethyl-4-hydroxyphenoxy)-3-[4-(2-methoxyphenyl)-1-piperazinyl]propan-2-ol hydrochloride]
Blood pressure, 1 hr [2]: 218.3 ± 11.3^*1 mmHg
Blood pressure, 2 hr [2]: 231.0 ± 14.5 mmHg
Blood pressure, 3 hr [2]: 236.5 ± 9.1 mmHg
Blood pressure, 4 hr [2]: 241.0 ± 9.8 mmHg
Blood pressure, 0 hr [2]: 247.0 ± 10.7 mmHg

melting point: 163 to 165 °C
Structure (SMILES): COc1ccccc1N1CCN(CC(O)COc2cc(C)c(O)c(C)c2C)CC1 (stereo not shown) [Example 23, 1-(2,3,5-Trimethyl-4-hydroxyphenoxy)-3-[4-(2-methoxyphenyl)-1-piperazinyl]propan-2-ol]
Intraocular pressure, 1 hr [1]: 20.8 ± 3.30^*1 mmHg
Intraocular pressure, 2 hr [1]: 22.8 ± 3.40 mmHg
Intraocular pressure, 3 hr [1]: 22.5 ± 3.42 mmHg
Intraocular pressure, 4 hr [1]: 23.8 ± 3.30 mmHg
Intraocular pressure, 0 hr [1]: 27.5 ± 3.42 mmHg
Blood pressure, 1 hr [2]: 193.3 ± 15.4 mmHg
Blood pressure, 2 hr [2]: 192.0 ± 10.8 mmHg
Blood pressure, 3 hr [2]: 179.3 ± 7.8^*1 mmHg
Blood pressure, 4 hr [2]: 192.0 ± 15.1 mmHg
Blood pressure, 0 hr [2]: 204.0 ± 14.4 mmHg
